The target in test [1] is single beta-lactamase in K. pneumoniae cell extracts (Escherichia coli, UniProt P62593, E102K/R162S). The test can be described thus: Spectrophotometric hydrolysis assay on crude beta-lactamase extracts. Particulars: K. pneumoniae Pit 16 extract, beta-lactamase pI 5.6; 100 μM substrate.
Test [2] has as its target single beta-lactamase in K. pneumoniae cell extracts (Klebsiella pneumoniae, UniProt P0AD64, E235K/G234S). The description is as above. Particulars: K. pneumoniae Pit 82 extract, beta-lactamase pI 8.2; 100 μM substrate.
The target in test [3] is single beta-lactamase in K. pneumoniae cell extracts (Klebsiella pneumoniae, UniProt P0AD64, G234S). Described as above. Particulars: K. pneumoniae Pit 100 extract, beta-lactamase pI 7.6; 100 μM substrate.
The target in test [4] is single beta-lactamase in E. coli cell extracts (Escherichia coli, UniProt P62593, E102K/R162S). The description is as above. The conditions noted are these: E. coli Pit 64 extract, beta-lactamase pI 5.6; 100 μM substrate.
Test [5] deals with single beta-lactamase in P. mirabilis cell extracts (Escherichia coli, UniProt P62593, E102K/R162S). The test is described as above. Particulars: P. mirabilis Pit 85 extract, beta-lactamase pI 5.6; 100 μM substrate.
For test [6], the system named is K. pneumoniae 225. The test can be described thus: NCCLS microdilution susceptibility test. The test is classed as cell-based, Klebsiella pneumoniae. Particulars: Klebsiella pneumoniae, 225.
Test [7] deals with K. pneumoniae 225. The test can be described thus: NCCLS disk diffusion assay. The test is classed as cell-based, Klebsiella pneumoniae. The conditions noted are these: disk diffusion, Kleb 225. Background: A growth-free zone around the sample is the usual read-out of agar diffusion tests.
The subject of test [8] is K. pneumoniae. The test can be described thus: Agar dilution MIC, South African isolates. The test is classed as cell-based, Klebsiella pneumoniae. The conditions noted are these: tzp with tazobactam 4 μg/ml. The source says:
(§1) The strains were provided in response to a request for all strains of Enterobacteriaceae, lacking inducible beta-lactamases, that were intermediate or resistant to cefotaxime or ceftazidime. […]
On the technique in general: Agar dilution tests growth on a series of plates holding different concentrations.

Test [9] concerns E. coli. The test can be described thus: Agar dilution MIC, South African isolates. The test is classed as cell-based, Escherichia coli. The conditions noted are these: tzp with tazobactam 4 μg/ml.
From the text: as §1

Test [10] concerns P. mirabilis. The test can be described thus: Agar dilution MIC, South African isolates. Format: cell-based, Proteus mirabilis. Particulars: 4 strains, tzp with tazobactam 4 μg/ml. From the text: During a period of three months in 1993, […] strains of Klebsiella pneumoniae (13 blood, 5 burn, 7 wound, 11 tracheal isolates), 4 strains of Proteus mirabilis (all wound isolates) and 4 strains of Escherichia coli (1 blood, 1 burn, 2 wound isolates) were collected from patients at the following medical centers in South Africa: Tygerberg Hospital near Cape Town, King Edward VIII Hospital in Durban, Chris Hani Baragwanath Hospital in Soweto and Pretoria Academic Hospital in Pretoria. The strains were provided in response to a request for all strains of Enterobacteriaceae, lacking inducible beta-lactamases, that were intermediate or resistant to cefotaxime or ceftazidime. […] Therefore accurate prevalence data were not obtained.
Antibiotic susceptibility was determined by standard disk diffusion (NCCLS Standard M2-T4, 1994) and agar dilution (NCCLS Standard M7-T2, 1994) procedures. Standard powders of antimicrobial agents were kindly provided by the following companies: piperacillin and tazobactam (Lederle Laboratories, Wayne, N.J.); cefoxitin and imipenem, (Merck, Rathway, N.J.); cefotaxime, (Hoechst-Roussel Pharmaceuticals Inc., Somerville, N.J.); ceftazidime, (Glaxo Group Research Ltd., Greenford, England); aztreonam and cefepime, (Bristol-Myers Squibb, Princeton, N.J.). Disks for agar diffusion were obtained from Becton Dickinson Microbiology Systems (Cockeysville, Md.). For quality control purposes, the following quality control strains were run simultaneously with the test organisms E. coli ATCC 25922, Pseudomonas aeruginosa ATCC 27853, E. coli ATCC 35218, and Staphylococcus aureus ATCC 29213. Throughout this study, results were interpreted using NCCLS criteria for disk diffusion (NCCLS Standard M2-T4, 1994) and broth dilution (NCCLS Standard M7-T2, 1994).

The test system of test [11] is E. coli C600N transconjugants. The test can be described thus: Susceptibility of transconjugants. The test is classed as cell-based, Escherichia coli. The conditions noted are these: E. coli C600N transconjugants of E. aerogenes 187, 200, 220, 184. The procedure: (§2) Antibiotic susceptibilities were determined by standard disk-diffusion (NCCLS Standard M2-A6) and agar-dilution (NCCLS Standard M7-A4) procedures. Disks were obtained from Becton Dickinson Microbiology Systems (Cockeysville, Md.). Disk-diffusion susceptibilities to the following antibiotics were determined, ampicillin; amoxicillin clavulanic acid; aztreonam; cefazolin; cefoxitin; cefuroxime; cefotaxime; ceftriaxone; ceftazidime; cefepime; imipenem; gentamicin; trimethoprim/sulfamethoxazole and ciprofloxacin. […] The following quality control strains were run simultaneously with the test organisms Escherichia coli ATCC 25922, Pseudomonas aeruginosa ATCC 27853, and E. coli ATCC 35218. Throughout this study, results were interpreted using NCCLS criteria for disk diffusion (NCCLS M2-A6) and broth dilution (NCCLS M7-A4).
[…]. The filter paper mating technique with overnight incubation at 37° C. were performed as described previously (Philippon et al., Antimicrob. Agents Chemother., 33:1131-1136 (1989)). Transconjugants were selected on LB (Luria Bertani) agar [Difco (Detroit, Mich.)] plates containing 12 μg per ml nalidixic acid and 20 μg per ml ampicillin.

In test [12] the test system is E. coli HB101 transformant (17 kb plasmid). Particulars: disk diffusion, Tr (17 kb) = transformant E. coli HB101.
The test system of test [13] is E. coli C600 transconjugant. Particulars: disk diffusion, Tc = transconjugate E. coli C600.
Test [14] relates to K. pneumoniae 225. The test can be described thus: Three-dimensional test (enzymatic inactivation of antibiotics). Particulars: beta-lactamase-mediated hydrolysis by K. pneumoniae 225, lawn E. coli ATCC 25922.
Test [15] concerns E. aerogenes. Format: cell-based, Enterobacter aerogenes. As to the method: Antibiotic susceptibilities were determined by standard disk-diffusion (NCCLS Standard M2-A6) and agar-dilution (NCCLS Standard M7-A4) procedures. Disks were obtained from Becton Dickinson Microbiology Systems (Cockeysville, Md.). […] Throughout this study, results were interpreted using NCCLS criteria for disk diffusion (NCCLS M2-A6) and broth dilution (NCCLS M7-A4).

Test [16] deals with beta-lactamases in sonic extracts of E. aerogenes. The test can be described thus: Isoelectric focusing overlay: cefotaxime hydrolysis, inhibitors, induction. Particulars: cefoxitin at 1/4 of the MIC.
The test system of test [17] is K. pneumoniae 225. The test can be described thus: MicroScan Walkaway microdilution susceptibility test. The test is classed as cell-based, Klebsiella pneumoniae. The conditions noted are these: K. pneumoniae 225. Background: Broth dilution looks for growth in wells or tubes with falling amounts of substance.
Test [18] has as its system E. aerogenes. The test can be described thus: Disk diffusion susceptibility test. The test is classed as cell-based, Enterobacter aerogenes. Particulars: all the E. aerogenes strains. The procedure:
as §2

Where [19] appears, read: resistance phenotype Kpn1, 8 strains.
Setting [20] is: resistance phenotype Kpn2, 28 strains.
The mark [21] stands for this setting: resistance phenotype Ec1, 3 strains.
Where [22] appears, read: resistance phenotype Ec2, 1 strain.
[23] abbreviates: 1 E. aerogenes strain with Bush group 1 and group 2be (SHV-3) enzymes.
Where [24] appears, read: 1 E. aerogenes strain with Bush group 1 and group 2be (SHV-5) enzymes.
[25] abbreviates: 29 E. aerogenes strains with Bush group 1 and group 2be (SHV-4) enzymes.

Read-outs that look alike come from different tables or passages of the source.

With `O=C(Cc1cccs1)N[C@@H]1C(=O)N2C(C(=O)O)=C(/C=C/c3ccc([N+](=O)[O-])cc3[N+](=O)[O-])CS[C@H]12` [Nitrocefin], the Hydrolysis in [1] is listed as 114 nmol of substrate hydrolyzed/m; in test [2], 136 nmol of substrate hydrolyzed/m; in [3], 159 nmol of substrate hydrolyzed/m; in test [4], 275 nmol of substrate hydrolyzed/m; in [5], 138 nmol of substrate hydrolyzed/m.

Take `C[C@H]1[C@H](NC(=O)/C(=N\OC(C)(C)C(=O)O)c2csc(N)n2)C(=O)N1S(=O)(=O)O` [aztreonam]: the MIC in test [6] is above 64 µg/mL. Also, the “Zone Size” value in [7] came out at 8 mm; in [12], 33 mm; in test [13], 7 mm. The MIC range is 16 to 64 µg/mL in test [8] (setting [19]); 1 to 128 µg/mL in [8] (setting [20]); 2 µg/mL in [8] (resistance phenotype Kpn3 (K. pneumoniae Pit 68), 1 strain, listed as atm); 16 µg/mL in test [9] (setting [21]); 2 µg/mL in test [9] (setting [22]); 0.5 to 2 µg/mL in test [10]. Further, the “susceptibility after transfer of plasmids encoding SHV beta-lactamase genes” value (“susceptibility after transfer” below) in test [11] is “decreased susceptibility”. In test [14], the three dimensional test result was “positive”. In addition, the Hydrolysis in test [1] was 0.6 nmol of substrate hydrolyzed/m; in test [2], 0.9 nmol of substrate hydrolyzed/m; in [3], 0.9 nmol of substrate hydrolyzed/m; in test [4], 0.4 nmol of substrate hydrolyzed/m; in test [5], 0.5 nmol of substrate hydrolyzed/m.

As to `CO[C@@]1(NC(=O)Cc2cccs2)C(=O)N2C(C(=O)O)=C(COC(N)=O)CS[C@@H]21` [cefoxitin], the MIC in [6] is above 64 µg/mL. Moreover, the results for the “Zone Size” value in [7], in test [12] and in test [13] were 6 mm, 25 mm and 7 mm, respectively. For the same molecule, the MIC range in test [8] (setting [19]) is 2 to 4 µg/mL; in test [8] (setting [20]) it was 2 to 8 µg/mL; in test [8] (resistance phenotype Kpn3 (K. pneumoniae Pit 68), 1 strain) it was above 128 µg/mL; in [8] (resistance phenotype Kpn3 (K. pneumoniae Pit 68), 1 strain, listed as fox), above 128 µg/mL; in test [9] (setting [21]), 4 µg/mL; in [9] (setting [22]) it was 8 µg/mL. The MIC range was 2 to 4 µg/mL in test [10], above 256 µg/mL in [15] (setting [23]), above 256 µg/mL in test [15] (setting [24]) and above 256 µg/mL in test [15] (setting [25]). For the same molecule, the three dimensional test entry in [14] was “positive”. The Inducible by cefoxitin entry in test [16] (SHV-3 strain (1), Bush group 1 enzyme pI 8.3) is reported as “yes”; in test [16] (SHV-3 strain (1), Bush group 2be enzyme pI 6.9), “no”; in test [16] (SHV-4 strains (29), Bush group 1 enzyme pI 8.3) it was “yes”; in test [16] (SHV-4 strains (29), Bush group 2be enzyme pI 7.8), “no”; in test [16] (SHV-5 strain (1), Bush group 1 enzyme pI 8.3), “yes”; in [16] (SHV-5 strain (1), Bush group 2Be enzyme pI 8.0), “no”.

As to gentamicin, the MicroScan susceptibility result in test [17] is listed as “Resistant”. The “Zone Size” value in [7] is 8 mm; in test [12], 25 mm; in [13] it was 8 mm. In addition, the MIC range in [15] (setting [23]) is 8 µg/mL; in [15] (setting [24]), above 128 µg/mL; in test [15] (setting [25]), 1 to 16 µg/mL. For the same molecule, the “susceptibility after transfer” value in test [11] is given as “resistance”.

As for trimethoprim/sulfamethoxazole, the MicroScan susceptibility result in test [17] is “Resistant”. In addition, the “MicroScan MIC” value in test [17] (MicroScan test, unit not given) is on record as > 2/38. For the same molecule, the entries for the “Zone Size” value in test [7], in [12] and in [13] were 6 mm, 31 mm and 8 mm, respectively. Also, in test [18], the Disk diffusion susceptibility entry is listed as “resistant”. Also, the “susceptibility after transfer” value in test [11] was “resistance”.

The term MIC denotes the smallest concentration in the dilution series that meets the test's criterion for growth inhibition.

The values are drawn from patent US6893846B2, “Primers for use in detecting beta-lactamases” (priority 1998, dated 2005).
